The text below walks through data of ChEMBL document CHEMBL5038676, “Novel RIPK1 Inhibitors for Treating Neurodegenerative, Autoimmune, and Inflammatory Diseases” (ACS Med Chem Lett, 2022).

A value given as a limit tells only on which side of the number the result lay.

The target of this test is T1, Receptor-interacting serine/threonine-protein kinase 1 (Homo sapiens, UniProt Q13546).
T1 sequence (Q13546 whole entry): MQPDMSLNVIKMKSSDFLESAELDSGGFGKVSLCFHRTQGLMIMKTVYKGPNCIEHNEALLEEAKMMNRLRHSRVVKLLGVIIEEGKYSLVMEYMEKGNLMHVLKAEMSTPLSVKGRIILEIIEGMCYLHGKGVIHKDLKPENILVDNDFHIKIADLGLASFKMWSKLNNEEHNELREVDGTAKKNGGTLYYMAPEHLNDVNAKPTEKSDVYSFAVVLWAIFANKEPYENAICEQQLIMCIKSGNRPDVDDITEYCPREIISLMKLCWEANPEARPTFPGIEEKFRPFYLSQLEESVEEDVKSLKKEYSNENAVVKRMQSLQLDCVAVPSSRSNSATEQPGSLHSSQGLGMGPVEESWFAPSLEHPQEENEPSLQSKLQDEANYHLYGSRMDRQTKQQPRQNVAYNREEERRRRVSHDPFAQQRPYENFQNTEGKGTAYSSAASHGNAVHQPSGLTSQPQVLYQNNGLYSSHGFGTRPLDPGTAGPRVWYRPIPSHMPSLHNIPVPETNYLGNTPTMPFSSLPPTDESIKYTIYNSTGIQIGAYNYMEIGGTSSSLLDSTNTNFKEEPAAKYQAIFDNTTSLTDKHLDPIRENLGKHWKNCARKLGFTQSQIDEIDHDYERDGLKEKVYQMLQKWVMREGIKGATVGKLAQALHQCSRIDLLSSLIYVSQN
The test is described as follows: Inhibition of recombinant N-terminal GST-tagged human RIPK1 (1 to 327 residues) expressed in baculovirus infected Sf9 insect cells preincubated for 40 mins followed by substrate addition and measured after 60 mins by ADP-glo luminescence assay. (In general: ADP-Glo first removes unused ATP, then detects ADP through luciferase.)
As to `O=C(N1CC(Sc2ccc(Br)cc2)C1)N1N=CC[C@H]1c1cc(F)cc(F)c1`, the half-maximal effective concentration (EC50) turned out to be 5.9 nM.

On to `O=C(N1CC(Oc2ccccc2)C1)N1N=CC[C@H]1c1cc(F)cc(F)c1`, for which the concentration for a half-maximal effect (EC50) amounted to 3.8 nM.

On to `O=C(c1ccccc1)C1CN(C(=O)N2N=CC[C@H]2c2cc(F)cc(F)c2)C1`, for which the EC50 stood at 5.6 nM.

Consider `C[C@H]1[C@@H](Oc2ccc(F)cc2)CN1C(=O)N1N=CC[C@H]1c1ccc(Cl)cc1`, for which the EC50 is under 5.1 nM.

As to `O=C(N1CC(Oc2ccccc2F)C1)N1N=CC[C@H]1c1cc(F)cc(F)c1`, the EC50 came to 3.1 nM.

As a reminder, the EC50 is the midpoint of the concentration-response curve.
